Among the data in US12421217B2, “Pyrazine derivative or salt thereof, and use of same” (FUJIFILM Corporation, priority 2019, dated 2025) are IC50 and GI50 values, retold here.

The target of test [1] is T1, recombinant human DHODH (Homo sapiens, UniProt Q02127).
T1 construct: DHODH, 31-395 aa, Human, His tag, E. coli, ATGP1615; His tag; purchased ATGen Co. Ltd. ATGP1615; host or cells: E. coli
The test is described as follows: Enzyme reaction inhibition test (DHODH enzyme assay, DCIP quenching). It is filed as biochemical. The following applies: DCIP absorbance 600 nm, 50 minutes, read-out: Enzyme reaction inhibitory effect (IC50). The procedure: The DHODH enzyme assay was carried out with reference to “Benjamin Bader, Wolfgang Knecht, Markus Fries, and Monika Loffler. Expression, Purification, and Characterization of Histidine-Tagged Rat and Human Flavoenzyme Dihydroorotate Dehydrogenase. Protein Expression and Purification, 1998, 13, 414-422.”
The DHODH activity was evaluated using an enzyme assay system that is coupled with an assay in which a blue coloring agent 2,6-dichlorophenol indophenol (DCIP, available from MP Biomedicals, LLC, MP150118) is quenched. Purified recombinant human DHODH (DHODH, 31-395 aa, Human, His tag, E. coli, ATGP1615) was purchased from ATGen Co. Ltd. The enzyme assay was carried out in a 384-well plate using a buffer solution containing 100 mmol/L Hepes (available from Dojindo Laboratories, 342-01375), 400 mmol/L NaCl (available from FUJIFILM Wako Pure Chemical Corporation, 191-01665), 10% Glycerol (available from FUJIFILM Wako Pure Chemical Corporation, 075-00616), 0.05% Triton X-100 (available from Sigma-Aldrich Co., LLC, T8787-100ML), 0.2 mmol/L Ubiquinone-10 (available from FUJIFILM Wako Pure Chemical Corporation, 216-00761), 0.1 mmol/L DHO (L-dihydroorotic acid, available from Sigma-Aldrich Co., LLC, D7128), 0.5% DMSO (dimethylsulfoxide, available from FUJIFILM Wako Pure Chemical Corporation, 047-29353), 0.175 μg/mL DHODH, and 0.12 mmol/L DCIP and having a pH adjusted to 8.0 by adding 5 mol/L potassium hydroxide (available from FUJIFILM Wako Pure Chemical Corporation, 168-21815). A test compound with a predetermined concentration was added using Biomek NX (available from Beckman Coulter Inc.), and the enzymatic reaction was started by adding the substrate. The enzyme activity was assessed by measuring the decrease in DCIP absorbance (600 nm) for 50 minutes using an EnVision plate-reading spectrophotometer (available from PerkinElmer, Inc.).
The enzyme reaction inhibition rate at each test compound concentration was determined, and the 50% enzyme reaction inhibition concentration [IC50 (nmol/L)] was calculated using XLfit. Enzyme reaction inhibition rate (%)=(amount of luminescence in test compound-added well)/(amount of luminescence in DMSO-added well)×100
The abbreviations in the table have the following meanings. • A: IC50 value<10 nmol/L • B: 10 nmol/L≤IC50 value<100 nmol/L • C: 100 nmol/L≤IC50 value

For test [2], the system named is human myeloid leukemia cell line HL60. In words: Cell growth test (Cell Titer Glo). It is filed as cell-based. The following applies: HL-60, 72 h, HL60 cells, 3 days, read-out: Cell growth inhibitory effect (GI50). As to the method:
The cell growth test was carried out using the human myeloid leukemia cell line HL60 (available from ATCC, CRL-240). As a culture medium of HL60 cells, RPMI 1640 (available from FUJIFILM Wako Pure Chemical Corporation, 189-02025) supplemented with 10% fetal bovine serum (available from Thermo Fisher Scientific, Inc., 10437-028), and 1% penicillin-streptomycin (10,000 U/mL, available from Thermo Fisher Scientific, Inc., 15140-122) was used. HL60 cells were seeded on a 384-well plate (available from Corning Inc., 4588) at a cell density of 1×10^3 cells/20 μL/well. After culturing overnight, 5 μL of the test compound having a predetermined concentration was added, and 3 days later, 25 μL of Cell Titer Glo (registered trademark) Luminescent Cell Viability Assay (available from Promega Corporation, G7573) was added, and then the amount of luminescence was measured using an EnVision plate reader (available from PerkinElmer, Inc.). Since the amount of luminescence is proportional to the intracellular concentration of adenosine triphosphate (ATP), the amount of luminescence was used as an indicator of the number of viable cells. The growth inhibitory concentration for each test compound concentration was calculated by the following expression.
The growth inhibition rate at each test compound concentration was determined, and the 50% growth inhibitory concentration [GI50 (nmol/L)] was calculated using XLfit. Growth inhibition rate (%)=(amount of luminescence in test compound-added well)/(amount of luminescence in DMSO-added well)×100
The abbreviations in the table have the following meanings. • A: GI50 value<100 nmol/L • B: 100 nmol/L≤GI50 value<1,000 nmol/L • C: 1,000 nmol/L≤GI50 value
(In general: ATP-based viability assays read luminescence as a measure of living cells.)

T1 sequence (Q02127 31-395): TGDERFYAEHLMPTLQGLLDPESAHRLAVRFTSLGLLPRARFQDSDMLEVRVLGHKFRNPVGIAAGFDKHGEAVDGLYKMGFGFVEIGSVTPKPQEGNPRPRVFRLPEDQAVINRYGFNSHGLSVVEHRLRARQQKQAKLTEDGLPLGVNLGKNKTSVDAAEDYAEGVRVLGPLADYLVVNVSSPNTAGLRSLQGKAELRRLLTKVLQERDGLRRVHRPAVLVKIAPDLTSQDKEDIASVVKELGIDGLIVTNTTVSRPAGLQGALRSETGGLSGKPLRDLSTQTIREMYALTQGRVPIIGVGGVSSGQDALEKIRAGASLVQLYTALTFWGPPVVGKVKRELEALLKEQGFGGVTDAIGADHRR

Broadly, the IC50 is the concentration at which inhibition is half-maximal. The term GI50 denotes the concentration at which growth is held to half of that of the control. On to `O=C(O)c1nc(C2CC2)cnc1Nc1cccc(C2=CCOCC2)c1COCC(F)(F)F` [Example 19-10], for which, in test [1], the IC50 was in the range of 10 to 100 nM. For the same compound, the concentration for 50% growth inhibition (GI50) in test [2] was 100 to 1000 nM.
In the case of `O=C(O)c1nc(C2CC2)cnc1Nc1cc(F)cc(C2=CCOCC2)c1OCC(F)(F)F` [Example 5, 6-cyclopropyl-3-((3-(3,6-dihydro-2H-pyran-4-yl)-5-fluoro-2-(2,2,2-trifluoroethoxy)phenyl)amino) pyrazine-2-carboxylic acid], the half-inhibitory concentration (IC50) in test [1] was less than 10 nM. In addition, in test [2], the GI50 was less than 100 nM.
With `CCOc1c(Nc2ncc(C3CC3)nc2C(=O)O)ccc(F)c1C1=CCOCC1` [Example 19-25], the IC50 in test [1] was less than 10 nM. The GI50 in test [2] was in the range of 100 to 1000 nM.
For `CC1=C(c2cccc(Nc3ncc(C4CC4)nc3C(=O)O)c2OCC(F)(F)F)CCOC1` [Example 19-14], the IC50 in test [1] is less than 10 nM. Moreover, the GI50 in test [2] is less than 100 nM.
In the same order, the values of `O=C(O)c1nc(C2CC2)cnc1Nc1cccc(C2CCOCC2)c1CCF` [Example 19-19] are 10 to 100 nM and not below 1000 nM.
In the same order, the values of `O=C(O)c1nc(C2CC2)cnc1Nc1cccc(C2=CCOCC2)c1OCCC(F)(F)F` [Example 19-8] are less than 10 nM and less than 100 nM.
For `O=C(O)c1nc(C2CC2)cnc1Nc1cccc(C2=CCOCC2)c1OCC(F)F` [Example 19-3], the IC50 in test [1] was less than 10 nM. The GI50 in test [2] is 100 to 1000 nM.
Turning to `CCCCc1c(Nc2ncc(C3CC3)nc2C(=O)O)cccc1C1CCOCC1` [Example 19-17], the IC50 in test [1] is less than 10 nM. The concentration for 50% growth inhibition (GI50) in test [2] was 100 to 1000 nM.
As to `O=C(O)c1nc(C2CC2)cnc1Nc1cccc(C2=CCOCC2)c1OC(F)F` [Example 14, 6-cyclopropyl-3-((2-(difluoromethoxy)-3-(3,6-dihydro-2H-pyran-4-yl)phenyl)amino)pyrazine-2-carboxylic acid], in test [1], the IC50 is less than 10 nM. In test [2], the 50% growth inhibitory concentration (GI50) fell in the range of 100 to 1000 nM.
In the case of `CC(C)c1cnc(Nc2cccc(C3=CCOCC3)c2OCC(F)(F)F)c(C(=O)O)n1` [Example 19-31], the IC50 in test [1] was 10 to 100 nM. For the same compound, the GI50 in test [2] was in the range of 100 to 1000 nM.
For the compound `CCOc1ccc(Nc2ncc(C3CC3)nc2C(=O)O)cc1C1=CCOCC1` [Example 19-24], the IC50 in test [1] was in the range of 10 to 100 nM. Also, the GI50 in test [2] lay within 100 to 1000 nM.
In the same order, the values of `Cc1cnc(Nc2cccc(C3=CCOCC3)c2OCC(F)(F)F)c(C(=O)O)n1` [Example 19-33] are 10 to 100 nM and not below 1000 nM.
In the same order, the values of `O=C(O)c1nc(C2CC2)cnc1Nc1cccc(C2CCOCC2)c1CCC(F)(F)F` [Example 19-15] are less than 10 nM and less than 100 nM.
Regarding `O=C(O)c1nc(C2CC2)cnc1Nc1cccc(C2CCOCC2)c1CCC(F)F` [Example 19-28], the IC50 in test [1] is less than 10 nM. Moreover, the GI50 in test [2] was less than 100 nM.
Turning to `CCOC(=O)c1nc(C2CC2)cnc1Nc1cccc(C2=CCOCC2)c1OCC(F)(F)F` [Example 20, ethyl 6-cyclopropyl-3-((3-(3,6-dihydro-2H-pyran-4-yl)-2-(2,2,2-trifluoroethoxy)phenyl)amino)pyrazine-2-carboxylate], the IC50 in test [1] is not below 100 nM. Moreover, the GI50 in test [2] lay in the range of 100 to 1000 nM.
For `COc1c(Nc2ncc(C3CC3)nc2C(=O)O)cccc1C1=CCOCC1` [Example 19-20], in that order: 10 to 100 nM and not below 1000 nM.
As for `CC(Oc1c(Nc2ncc(C3CC3)nc2C(=O)O)cccc1C1=CCOCC1)C(F)(F)F` (stereo not shown) [Example 19-6], the IC50 in test [1] is 10 to 100 nM. In test [2], the GI50 was 100 to 1000 nM.
`O=C(O)c1nc(C2CC2)cnc1Nc1cccc(C2=CCOCC2)c1F` [Example 19-22]: the IC50 in test [1] lay in the range of 10 to 100 nM. In test [2], the GI50 is not below 1000 nM.
As to `O=C(O)c1nc(C2CC2)cnc1Nc1cccc(C2CCOCC2)c1CC(F)(F)F` [Example 19-18], in test [1], the IC50 was 10 to 100 nM. Besides, the GI50 in test [2] is 100 to 1000 nM.
In the case of `CCOc1c(Nc2ncc(C3CC3)nc2C(=O)O)cc(F)cc1C1=CCOCC1` [Example 19-5], the IC50 in test [1] fell in the range of 10 to 100 nM. The GI50 in test [2] is 100 to 1000 nM.
`O=C(O)c1nc(C2CC2)cnc1Nc1cccc(C2CCOCC2)c1CC(F)F` [Example 19-29]: the IC50 in test [1] lay within 10 to 100 nM. Further, the GI50 in test [2] was less than 100 nM.
In the case of `Cc1c(Nc2ncc(C3CC3)nc2C(=O)O)cc(F)cc1C1=CCOCC1` [Example 19-4], the IC50 in test [1] lay in the range of 10 to 100 nM. For the same compound, the GI50 in test [2] was 100 to 1000 nM.
On to `O=C(O)c1nc(C2CC2)cnc1Nc1cccc(C2CCOCC2)c1C1CC1` [Example 19-12], for which the IC50 in test [1] is less than 10 nM. Besides, in test [2], the concentration for 50% growth inhibition (GI50) was 100 to 1000 nM.
As for `CC(C)c1c(Nc2ncc(C3CC3)nc2C(=O)O)cccc1C1CCOCC1` [Example 19-13], the IC50 in test [1] was less than 10 nM. Moreover, the GI50 in test [2] lay in the range of 100 to 1000 nM.
With `CCOc1c(Nc2ncc(C3CC3)nc2C(=O)O)cccc1C1=CCOCC1` [Example 19-21], in test [1], the IC50 fell in the range of 10 to 100 nM. Moreover, in test [2], the GI50 was 100 to 1000 nM.
For `CCOc1c(C2=CCOCC2)cc(F)c(F)c1Nc1ncc(C2CC2)nc1C(=O)O` [Example 19-2], the IC50 in test [1] lay in the range of 10 to 100 nM. Moreover, in test [2], the concentration for 50% growth inhibition (GI50) lay within 100 to 1000 nM.
In the same order, the values of `O=C(O)c1nc(C2CC2)cnc1Nc1cccc(C2=CCOCC2)c1CCCF` [Example 19-27] are 10 to 100 nM and 100 to 1000 nM.
Take `CCOc1ccc(Nc2ncc(C3CC3)nc2C(=O)O)c(OCC)c1C1=CCOCC1` [Example 19-23]: in test [1], the IC50 lay within 10 to 100 nM. The GI50 in test [2] is 100 to 1000 nM.
With `O=C(O)c1nc(C2CC2)cnc1Nc1cccc(C2=CCOCC2)c1OCC(F)(F)C(F)(F)F` [Example 19-7], the IC50 in test [1] was less than 10 nM. In addition, the GI50 in test [2] was less than 100 nM.
For `CCc1cnc(Nc2cccc(C3=CCOCC3)c2OCC(F)(F)F)c(C(=O)O)n1` [Example 19-32], in that order: 10 to 100 nM and 100 to 1000 nM.
For the compound `CCc1c(Nc2ncc(C3CC3)nc2C(=O)O)cccc1C1CCOCC1` [Example 12, 6-cyclopropyl-3-((2-ethyl-3-(tetrahydro-2H-pyran-4-yl)phenyl)amino)pyrazine-2-carboxylic acid], the IC50 in test [1] is less than 10 nM. Also, the GI50 in test [2] was less than 100 nM.
`COC(=O)c1nc(C2CC2)cnc1Nc1cccc(C2=CCOCC2)c1OCC(F)(F)F` [Example 1, methyl 6-cyclopropyl-3-((3-(3,6-dihydro-2H-pyran-4-yl)-2-(2,2,2-trifluoroethoxy)phenyl)amino)pyrazine-2-carboxylate]: in test [1], the IC50 is not below 100 nM. For the same compound, the GI50 in test [2] fell in the range of 100 to 1000 nM.
For `O=C(O)c1nc(C2CC2)cnc1Nc1cc(F)cc(C2=CCOCC2)c1OC(F)F` [Example 19-1], in that order: less than 10 nM and 100 to 1000 nM.
In the same order, the values of `CCCc1c(Nc2ncc(C3CC3)nc2C(=O)O)cccc1C1=CCOCC1` [Example 19-16] are 10 to 100 nM and 100 to 1000 nM.
In the case of `O=C(O)c1nc(C2CC2)cnc1Nc1ccc(F)c(C2=CCOCC2)c1F` [Example 19-26], the IC50 in test [1] fell in the range of 10 to 100 nM. The 50% growth inhibitory concentration (GI50) in test [2] was not below 1000 nM.
